According to the NIST ThermoML archive (doi:10.1016/j.fluid.2012.08.002):

Test: xn = mol fraction of the nth substance listed
Settings: 101 kPa, Liquid; for speed of sound: Sing-around technique in a fixed-path interferometer; for mass density: Vibrating tube method

CCCCCCn1cc[n+](C)c1.F[B-](F)(F)F [1-hexyl-3-methylimidazolium tetrafluoroborate] + COCCO
Settings | mass density [kg/m3] | speed of sound [m/s]
288.15 K, x1 = 0.053 | 996.474 | 1409.6
288.15 K, x1 = 0.1088 | 1021 | 1431.9
288.15 K, x1 = 0.2016 | 1052.83 | 1457.6
288.15 K, x1 = 0.3088 | 1077.88 | 1478.5
288.15 K, x1 = 0.4106 | 1093.47 | 1491.7
288.15 K, x1 = 0.5023 | 1103.61 | 1503.4
288.15 K, x1 = 0.5962 | 1112.5 | 1512.3
288.15 K, x1 = 0.7006 | 1122.49 | 1520
288.15 K, x1 = 0.7995 | 1132.99 | 1529.1
288.15 K, x1 = 0.9099 | 1145.62 | 1540
293.15 K, x1 = 0.053 | 991.791 | 1392.4
293.15 K, x1 = 0.1088 | 1016.45 | 1415.8
293.15 K, x1 = 0.2016 | 1048.37 | 1442.3
293.15 K, x1 = 0.3088 | 1073.64 | 1463.8
293.15 K, x1 = 0.4106 | 1089.74 | 1477.6
293.15 K, x1 = 0.5023 | 1100.22 | 1490.1
293.15 K, x1 = 0.5962 | 1109.27 | 1499.5
293.15 K, x1 = 0.7006 | 1119.44 | 1508.2
293.15 K, x1 = 0.7995 | 1130.02 | 1518.1
293.15 K, x1 = 0.9099 | 1142.38 | 1527.2
298.15 K, x1 = 0.053 | 987.817 | 1375.8
298.15 K, x1 = 0.1088 | 1012.38 | 1399.8
298.15 K, x1 = 0.2016 | 1044.22 | 1427.1
298.15 K, x1 = 0.3088 | 1069.47 | 1449.5
298.15 K, x1 = 0.4106 | 1085.86 | 1463.8
298.15 K, x1 = 0.5023 | 1096.66 | 1476.9
298.15 K, x1 = 0.5962 | 1106.01 | 1487.1
298.15 K, x1 = 0.7006 | 1116.37 | 1496.5
298.15 K, x1 = 0.7995 | 1126.8 | 1505.8
298.15 K, x1 = 0.9099 | 1138.92 | 1514.7
303.15 K, x1 = 0.053 | 983.383 | 1359.3
303.15 K, x1 = 0.1088 | 1008.21 | 1384
303.15 K, x1 = 0.2016 | 1040.16 | 1411.9
303.15 K, x1 = 0.3088 | 1065.51 | 1435.5
303.15 K, x1 = 0.4106 | 1081.93 | 1450.1
303.15 K, x1 = 0.5023 | 1092.85 | 1463.9
303.15 K, x1 = 0.5962 | 1102.49 | 1474.7
303.15 K, x1 = 0.7006 | 1113.08 | 1484.5
303.15 K, x1 = 0.7995 | 1123.59 | 1493.6
303.15 K, x1 = 0.9099 | 1135.86 | 1502.4
308.15 K, x1 = 0.053 | 979.101 | 1342.8
308.15 K, x1 = 0.1088 | 1004.1 | 1368.2
308.15 K, x1 = 0.2016 | 1036.07 | 1397
308.15 K, x1 = 0.3088 | 1061.47 | 1421.5
308.15 K, x1 = 0.4106 | 1077.94 | 1436.9
308.15 K, x1 = 0.5023 | 1089.12 | 1451
308.15 K, x1 = 0.5962 | 1098.81 | 1462.2
308.15 K, x1 = 0.7006 | 1109.56 | 1472.2
308.15 K, x1 = 0.7995 | 1120.09 | 1481.5
308.15 K, x1 = 0.9099 | 1132.31 | 1490.3
313.15 K, x1 = 0.053 | 974.997 | 1326.5
313.15 K, x1 = 0.1088 | 999.809 | 1352.3
313.15 K, x1 = 0.2016 | 1031.82 | 1382.1
313.15 K, x1 = 0.3088 | 1057.43 | 1407.4
313.15 K, x1 = 0.4106 | 1073.99 | 1424.1
313.15 K, x1 = 0.5023 | 1085.32 | 1438.4
313.15 K, x1 = 0.5962 | 1095.09 | 1449.7
313.15 K, x1 = 0.7006 | 1105.89 | 1460.1
313.15 K, x1 = 0.7995 | 1116.48 | 1469.5
313.15 K, x1 = 0.9099 | 1128.74 | 1478.5
318.15 K, x1 = 0.053 | 970.346 | 1309.8
318.15 K, x1 = 0.1088 | 995.598 | 1336.2
318.15 K, x1 = 0.2016 | 1027.87 | 1367.3
318.15 K, x1 = 0.3088 | 1053.41 | 1393.3
318.15 K, x1 = 0.4106 | 1070.02 | 1411.6
318.15 K, x1 = 0.5023 | 1080.99 | 1425.6
318.15 K, x1 = 0.5962 | 1090.77 | 1437.4
318.15 K, x1 = 0.7006 | 1101.5 | 1448.2
318.15 K, x1 = 0.7995 | 1112.28 | 1457.7
318.15 K, x1 = 0.9099 | 1124.84 | 1466.9

CCCCCCn1cc[n+](C)c1.F[P-](F)(F)(F)(F)F [1-hexyl-3-methylimidazolium hexafluorophosphate] + COCCO
Settings | mass density [kg/m3] | speed of sound [m/s]
288.15 K, x1 = 0.0503 | 1020.76 | 1399.2
288.15 K, x1 = 0.1092 | 1067.45 | 1411
288.15 K, x1 = 0.2006 | 1121.27 | 1419.8
288.15 K, x1 = 0.3032 | 1165.23 | 1422.9
288.15 K, x1 = 0.4013 | 1197.38 | 1424.7
288.15 K, x1 = 0.5017 | 1223.62 | 1427.5
288.15 K, x1 = 0.6054 | 1245.52 | 1433.9
288.15 K, x1 = 0.7024 | 1262.69 | 1434.3
288.15 K, x1 = 0.8019 | 1277.93 | 1436.7
288.15 K, x1 = 0.9094 | 1292.27 | 1442.3
293.15 K, x1 = 0.0503 | 1016.22 | 1382.5
293.15 K, x1 = 0.1092 | 1062.97 | 1394.8
293.15 K, x1 = 0.2006 | 1116.89 | 1404.6
293.15 K, x1 = 0.3032 | 1160.9 | 1408.6
293.15 K, x1 = 0.4013 | 1193.08 | 1411.3
293.15 K, x1 = 0.5017 | 1219.44 | 1414.5
293.15 K, x1 = 0.6054 | 1241.45 | 1421.2
293.15 K, x1 = 0.7024 | 1258.71 | 1421.4
293.15 K, x1 = 0.8019 | 1273.92 | 1424
293.15 K, x1 = 0.9094 | 1288.2 | 1428.6
298.15 K, x1 = 0.0503 | 1011.72 | 1365.8
298.15 K, x1 = 0.1092 | 1058.47 | 1378.9
298.15 K, x1 = 0.2006 | 1112.46 | 1389.6
298.15 K, x1 = 0.3032 | 1156.56 | 1394.5
298.15 K, x1 = 0.4013 | 1188.79 | 1398
298.15 K, x1 = 0.5017 | 1215.23 | 1401.7
298.15 K, x1 = 0.6054 | 1237.4 | 1407.8
298.15 K, x1 = 0.7024 | 1254.67 | 1408.9
298.15 K, x1 = 0.8019 | 1269.91 | 1411.5
298.15 K, x1 = 0.9094 | 1284.2 | 1415.8
303.15 K, x1 = 0.0503 | 1007.16 | 1349.2
303.15 K, x1 = 0.1092 | 1053.96 | 1362.9
303.15 K, x1 = 0.2006 | 1108.02 | 1374.7
303.15 K, x1 = 0.3032 | 1152.21 | 1380.7
303.15 K, x1 = 0.4013 | 1184.47 | 1385.2
303.15 K, x1 = 0.5017 | 1210.98 | 1389
303.15 K, x1 = 0.6054 | 1233.3 | 1395.1
303.15 K, x1 = 0.7024 | 1250.63 | 1396.7
303.15 K, x1 = 0.8019 | 1265.91 | 1399.4
303.15 K, x1 = 0.9094 | 1280.2 | 1403.3
308.15 K, x1 = 0.0503 | 1002.49 | 1332.7
308.15 K, x1 = 0.1092 | 1049.43 | 1347.1
308.15 K, x1 = 0.2006 | 1103.58 | 1359.9
308.15 K, x1 = 0.3032 | 1147.84 | 1367.3
308.15 K, x1 = 0.4013 | 1180.37 | 1372.3
308.15 K, x1 = 0.5017 | 1206.95 | 1376.4
308.15 K, x1 = 0.6054 | 1229.34 | 1382.4
308.15 K, x1 = 0.7024 | 1246.77 | 1384.5
308.15 K, x1 = 0.8019 | 1262.04 | 1387.4
308.15 K, x1 = 0.9094 | 1276.2 | 1391.3
313.15 K, x1 = 0.0503 | 997.703 | 1316.2
313.15 K, x1 = 0.1092 | 1044.81 | 1331.4
313.15 K, x1 = 0.2006 | 1099.15 | 1345.2
313.15 K, x1 = 0.3032 | 1143.59 | 1353.7
313.15 K, x1 = 0.4013 | 1176 | 1359.4
313.15 K, x1 = 0.5017 | 1202.67 | 1364
313.15 K, x1 = 0.6054 | 1225.28 | 1370
313.15 K, x1 = 0.7024 | 1242.9 | 1372.4
313.15 K, x1 = 0.8019 | 1258.23 | 1375.7
313.15 K, x1 = 0.9094 | 1272.23 | 1379.5
318.15 K, x1 = 0.0503 | 993.086 | 1299.8
318.15 K, x1 = 0.1092 | 1040.18 | 1316
318.15 K, x1 = 0.2006 | 1094.74 | 1330.8
318.15 K, x1 = 0.3032 | 1139.13 | 1340.3
318.15 K, x1 = 0.4013 | 1171.68 | 1346.7
318.15 K, x1 = 0.5017 | 1198.47 | 1351.6
318.15 K, x1 = 0.6054 | 1221.29 | 1357.5
318.15 K, x1 = 0.7024 | 1239.06 | 1360.5
318.15 K, x1 = 0.8019 | 1254.4 | 1364.1
318.15 K, x1 = 0.9094 | 1268.47 | 1368.1
